Consider three molecules from patent US20190315775A1, “MODIFIED […] AND PHARMACEUTICAL COMPOSITION HAVING SAME AS ACTIVE INGREDIENT” (KEIO UNIVERSITY, priority 2016, published 2019).

The subject of one data set is high-risk MM cell lines. The experiment in a line: MTT cell proliferation inhibition, panel of high-risk MM cell lines. To be noted: Homo sapiens, range over the cell lines of Table 2, 48 hours. Format: cell-based. As to the method:
(§1) For examination of cell proliferation inhibitory activity, high-risk MM cell lines (KMM1, KMS11, KMS21, KMS26, KMS28, KMS34) established by Takemi Otsuki et al., of Kawasaki Medical School were used (Otsuki, T. et al., Int. J. Oncol., 15: 1205-1212, 1999). […] The genetic abnormality of these cell types, and in particular deletion of p53 gene were examined by FISH method (Chang, H. Blood, 105: 358-360, 2005) (WO2010/061862A1). […] These high-risk MM cell lines were treated with drugs such as TC11, HOEtO-TC11, PEG11(E)-TC11, and PEG11(O)-TC11 at arbitrary concentrations. […] Specifically, each high-risk MM cell line was prepared at a concentration of 2×10^5 cells/ml, and then seeded in an amount of 50 μl (1×10^4 cells) per well. After 24 hours, drugs such as TC11, HOEtO-TC11, PEG11(E)-TC11, and PEG11(O)-TC11 having arbitrary concentrations were added. At 48 hours after addition of each drug, 10 μL each of an MTT labeling reagent in Cell Proliferation Kit I [MTT] (Roche Diagnostics, Basel, Switzerland) was added. After 4 hours of treatment at 37° C., 100 μL each of solution buffer was added and then left to stand overnight at 37° C. Absorbance was measured using a microplate reader Infinit™ M1000 (Tecan, Maennedorf, Switzerland) at a wavelength of 570 nm. Cell viability was found from an absorbance ratio using absorbance at 0 μM designated as 100%. IC50 was calculated from a semi-logarithmic chart using Microsoft (registered trademark) Excel.

Data set [1] can be described thus: Dissolution in physiological saline for dosing. The following applies: physiological saline (NaCl 0.9 w/v %) alone, dosing concentration. Format: physicochemical.
Data set [2] deals with KMS26 high-risk MM cell line. The data set is described as follows: MTT cell proliferation inhibition, KMS26. The following applies: Homo sapiens, KMS-26, KMS26, t(4;14), t(4;16), del17, 48 hours, read-out: IC50, cell proliferation inhibitory activity, KMS26. The class given is cell-based. As to the method: as §1
In data set [3] the test system is KMS34 (human myeloma cells). The experiment in a line: WST-1 proliferation assay (Example 10), KMS34. Format: cell-based. The following applies: KMS-34, WST-1, 48 hours. As to the method: Cancer cells used herein were KMS34 (human myeloma cells), HeLa (human cervical cancer cells), HCT116 (human colon cancer cells; p53+/+), KATOIII (human stomach cancer cells), MDA-MB-231 (human breast cancer cells), HT-29 (human colon adenocarcinoma cells), PANC-1 (human pancreatic cancer cells), and Li-7 (human liver cancer cells). Proliferation assay of various cancer cells was performed by the WST-1 method (Cook, J A. & Mitchell, J B., Anal. Biochem., 179, 1-7, 1984) as follows. One μ1 each of PEG11(E)-TC11 and PEG11(O)-TC11 prepared in advance at target concentrations was added into each well of a 96-well microplate. Medium was added to the wells at 50 μl per well, and then mixed by tapping lightly the plate. Subsequently, KMS34 was prepared at a concentration of 5×10^5 cells/ml, and cells other than KMS34 were prepared at a concentration of 2×10^5 cells/ml. Cells were seeded at 50 μl per well (2.5×10^4 cells, 1×10^4 cells), and then incubated in a CO2 incubator (37° C., 5% CO2) for 48 hours. Ten μ1 each of cell proliferation reagent WST-1 (Roche) was added to each well after incubation, and then the resultants were mixed by lightly tapping the plate, followed by 1 hour of reaction in the CO2 incubator. Subsequently, the plate was shaken with a plate reader for 1 minute, and then absorbance was measured at 450 nm. At this time, absorbance was also measured at 595 nm as a reference wavelength. The net absorbance was obtained by subtracting the absorbance at the reference wavelength from the absorbance at 450 nm.

The test system of data set [4] is KMS28 high-risk MM cell line. The data set is described as follows: MTT cell proliferation inhibition, KMS28. To be noted: Homo sapiens, KMS28, t(4;14), del17, 48 hours, read-out: IC50, cell proliferation inhibitory activity, KMS28. The class given is cell-based. How it is done: as §1
Data set [5] has as its system KMS34 high-risk MM cell line. The experiment in a line: MTT cell proliferation inhibition, KMS34. The class given is cell-based. To be noted: Homo sapiens, KMS-34, KMS34, t(4;14), del17, 48 hours, read-out: IC50, cell proliferation inhibitory activity, KMS34. How it is done:
as §1

Data set [6] has as its system KMS11 high-risk MM cell line. The experiment in a line: MTT cell proliferation inhibition, KMS11. Format: cell-based. To be noted: Homo sapiens, KMS-11, KMS11, t(4;14), del17, 48 hours, read-out: IC50, cell proliferation inhibitory activity, KMS11. How it is done:
as §1

A further data set deals with MUM24 MM cell line. The experiment in a line: MTT cell proliferation inhibition, MUM24. The class given is cell-based. The following applies: Homo sapiens, MUM24, t(4;14), del13, del17, 48 hours, read-out: IC50, cell proliferation inhibitory activity, MUM24.
Data set [7] deals with KMM1 high-risk MM cell line. The experiment in a line: MTT cell proliferation inhibition, KMM1. The class given is cell-based. To be noted: Homo sapiens, KMM-1, KMM1, t(6;14), t(8;14), del17, 48 hours, read-out: IC50, cell proliferation inhibitory activity, KMM1. As to the method:
as §1

In the next data set the target is T1, cereblon (CRBN) (Homo sapiens, UniProt Q96SW2).
T1 construct: recombinant full-length CRBN prepared by the above method was reacted with the beads; T7 tag (N); FLAG tag (C); made in house; host or cells: 293T cells (pcDNA3.3 vector), RIPA extract purified on Ni Sepharose excel
T1 sequence (Q96SW2 whole entry): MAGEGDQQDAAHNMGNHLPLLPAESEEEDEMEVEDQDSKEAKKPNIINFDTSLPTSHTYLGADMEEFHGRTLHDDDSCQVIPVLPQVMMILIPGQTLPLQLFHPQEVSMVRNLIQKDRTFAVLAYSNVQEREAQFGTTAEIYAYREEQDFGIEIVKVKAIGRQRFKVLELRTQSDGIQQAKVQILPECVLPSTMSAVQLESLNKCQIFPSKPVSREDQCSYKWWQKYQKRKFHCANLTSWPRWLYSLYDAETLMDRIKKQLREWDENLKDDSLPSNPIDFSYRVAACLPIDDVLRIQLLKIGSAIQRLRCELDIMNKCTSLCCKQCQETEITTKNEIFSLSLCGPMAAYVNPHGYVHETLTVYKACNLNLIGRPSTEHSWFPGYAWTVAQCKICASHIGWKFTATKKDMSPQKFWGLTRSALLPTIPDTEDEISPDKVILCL
The data set is described as follows: Surface plasmon resonance biosensor (BIACORE 3000) interaction with cereblon. The following applies: measured at 1 μM, 2 μM and 10 μM, FIG. 9C. Format: binding.

The subject of data set [8] is KMS21 high-risk MM cell line. The experiment in a line: MTT cell proliferation inhibition, KMS21. The class given is cell-based. The following applies: Homo sapiens, KMS21, t(11;14), 48 hours, read-out: IC50, cell proliferation inhibitory activity, KMS21. As to the method:
as §1
Moreover, the concentration dependency of the in vitro cell proliferation inhibitory activity of TC11, and its derivatives, PEG11(E)-TC11 and HOEtO-TC11 against high-risk MM cell line (KMS21) was examined in detail (FIG. 4). […] Such a phenomenon was similarly observed for other high-risk MM cell lines, KMS11, KMS34, and MUM24.

SMILES strings stand for the structures.

Take `COCCOCCOCCOCCOCCOCCOCCOCCOCCOCCOCCOCCC(=O)OCCOc1cc2c(cc1N)C(=O)N(c1c(C(C)C)cccc1C(C)C)C2=O` [PEG11(E)-TC11]: the IC50 with high-risk MM cell lines was 1 to 7 µM; in [2], 2.7 µM; in data set [3] it was 0.67 µM; in data set [4] it was 6.8 µM; in data set [5] it was 2.6 µM; in [6], 1.4 µM. For the same molecule, the IC50 amounted to 1.8 µM in the data set on MUM24 MM cell line, 6.3 µM in data set [7] and 1.6 µM in data set [8]. Besides, the “Dissolution in physiological saline” value in [1] is “completely dissolved”. Also, the “Binding to CRBN (SPR sensorgram)” value at cereblon (CRBN) is reported as “never bind to CRBN”.
For `COCCOCCOCCOCCOCCOCCOCCOCCOCCOCCOCCOCCOc1cc2c(cc1N)C(=O)N(c1c(C(C)C)cccc1C(C)C)C2=O` [PEG11(O)-TC11], the IC50 with high-risk MM cell lines was 5 to 60 µM; in data set [2], 16.4 µM; in [3], 16 µM; in data set [4] it was 25.8 µM; in data set [5], 10.5 µM; in [6] it was 4.8 µM. Also, the IC50 was 9.2 µM with MUM24 MM cell line, 59.3 µM in [7] and 22.7 µM in data set [8]. For the same molecule, in data set [1], the “Dissolution in physiological saline” value is listed as “completely dissolved”. For the same molecule, at cereblon (CRBN), the “Binding to CRBN (SPR sensorgram)” value is recorded as “never bind to CRBN”.
For the molecule `CC(C)c1cccc(C(C)C)c1N1C(=O)c2ccc(N)cc2C1=O` [TC11, 2-(2,6-di-isopropylphenyl)-5-amino-1H-isoindole-1,3-dione, reference compound], the IC50 is 2 to 8 µM with high-risk MM cell lines; 3 µM in [2]; 2.6 µM in data set [3]; 7.1 µM in data set [4]; 4 µM in data set [5]; 2 µM in [6]. Further, the IC50 turned out to be 3 µM with MUM24 MM cell line, 5.1 µM in data set [7] and 2.8 µM in [8]. In [1], the “Dissolution in physiological saline” value is on record as “hardly dissolved”. The “Binding to CRBN (SPR sensorgram)” value on cereblon (CRBN) is “never bind to CRBN”.
